# Test results published in article PMC11322497 (Frontiers in Pharmacology, 2024).
# How the values were obtained:
# [1] = system: high fat diet (HFD) rabbit model of metabolic-associated steatohepatitis (MASH); test: HFD rabbit study, acute 5-day treatment at week 12: clinical and biochemical data, tolerability; assay type: in vivo; conditions: for ALT / AST / Glycaemia / Liver Weight / MAP / OGTT (iAUC) / Plasma Cholesterol / Plasma Triglycerides: 30 mg/kg p.o. q.d. 5 days, mean ± SD, n = 3
# Procedure: A total number of 64 male New Zealand White rabbits (Charles River, Calco, Lecco, Italy), weighing about 3 kg, were individually caged under standard conditions in a temperature- and humidity-controlled room on a 12 h light/dark cycle. Water and food were unrestricted throughout the study. Experimental procedures were conducted using the facilities of the Department of Biomedical Experimental and Clinical Sciences “Mario Serio” and Department of Experimental and Clinical Medicine, and those of CE.S.A.L. (Centro Stabulazione degli Animali da Laboratorio), and NEUROFARBA Department, University of Florence, Italy.
# The dose employed was established based on pilot pharmacokinetics studies in rabbits performed historically in naïve rabbits (data not shown). This first part of the study allowed the determination of the therapeutic benefits of selvigaltin following acute treatment, thus validating the model for further investigation of this mechanism in a chronic treatment protocol.
# After 1 week of standard diet, animals (n = 12) were randomly assigned to the following groups (Table 1A): • Control rabbits continued to receive a regular diet (RD) for 12 weeks and were treated for 5 days (days 1–5, p.o.), during the last week before culling, with either vehicle; RD+1W Veh group] or GB1211 (30 mg/kg; RD + 1W 30 mg group); • Rabbits received a high fat diet (HFD) for 12 weeks (RD implemented with 0.5% cholesterol and 2.5% vegetable fat) and were treated for 5 days (days 1–5, p.o.), during the last week before culling, with either vehicle (HFD + 1W Veh group) or GB1211 (30 mg/kg; HFD + 1W 30 mg group).
# The oral glucose tolerance test (OGTT) was performed in accordance with the published method ([Filippi et al., 2009]). Briefly, after an overnight fast, a 50% glucose solution was orally administered to the animals at a dose of 1.5 g/kg. Blood samples were collected before and 15, 30, and 120 min after glucose loading. The incremental area under the curve (iAUC) was calculated by using GraphPad Prism (GraphPad Software, San Diego, CA). Blood samples for analyses were obtained from the marginal ear vein at week 8 or 12, in all groups. All blood samples were collected in standard conditions, before 10 a.m. after an overnight fasting. The blood was immediately centrifuged at 2,000 g for 20 min at 4°C and collected plasma/serum stored at −80°C until assayed. Plasma glucose, total cholesterol, triglycerides, transaminases (AST and ALT), and gamma-glutamyl transferase levels were measured using an automated system (Cobas 8000, Roche Diagnostics International AG, Rotkreuz, Switzerland). Serum alkaline phosphatase, albumin and total bilirubin levels were measured at IDEXX Laboratories (Kornwestheim, Germany), using an automated system (AU480, Beckman-Coulter, Brea, CA) with kinetic and photometric colour tests as per the following methods: alkaline phosphatase - alkaline buffer solution [2-amino-2-methylpropanol (AMP) in conjunction with p-nitrophenyl phosphate (pNPP)], according to the recommendation of the International Federation for Clinical Chemistry; albumin - the reaction of bromocresol green with albumin produces a colour complex, the absorption of which is measured dichromatically ([Doumas et al., 1971]); total bilirubin - a stabilized diazonium salt, 3,5-dichlorophenyldiazonium tetrafluoroborate (DPD), reacts with bilirubin to formazobilirubin, which absorbs at 570 nm ([Tolman and Rej, 1999]).
# Mean arterial blood pressure (MAP) was measured by using a polyethylene catheter inserted into a femoral artery at week 8 or 12, after ketamine (10 mg/kg i.v.) and sodium thiopental (50 mg/kg i.v.) sedation.
# [2] = system: high fat diet (HFD) rabbit model of metabolic-associated steatohepatitis (MASH); test: HFD rabbit study, prolonged 4-week treatment: protein expression in liver homogenates; assay type: in vivo, New Zealand White rabbits; conditions: HFD rabbits, weeks 9–12, mean±SD, n=3
# Procedure: After 1 week (W) of RD, the animals (n = 44) were randomly assigned to the following groups (Table 1B): • Control rabbits continued to receive a RD for 12 weeks and were treated with vehicle for 5 days a week (days 1–5, p.o.) during the last 4 weeks before culling (RD + 4W Veh group); • Rabbits received a HFD for 8 weeks and were culled (HFD 8W group); • Rabbits received a HFD for 12 weeks and were treated with vehicle for 5 days a week (days 1–5, p.o.) during the last 4 weeks before culling (HFD+4W Veh group); • Rabbits received a HFD for 12 weeks and were treated with GB1211 (0.3 mg/kg) for 5 days a week (days 1–5, p.o.) during the last 4 weeks before culling (HFD + 4W 0.3 mg group); • Rabbits received a HFD for 12 weeks and were treated with GB1211 (1.0 mg/kg) for 5 days a week (days 1–5, p.o.) during the last 4 weeks before culling (HFD + 4W 1.0 mg group); • Rabbits received a HFD for 12 weeks and were treated with GB1211 (5.0 mg/kg) for 5 days a week (days 1–5, p.o.) during the last 4 weeks before culling (HFD + 4W 5.0 mg group).
# Quantitative analyses of collagen, IL6 and TNFα expression in liver biopsies were carried out using available commercial assays. Collagen content was evaluated in liver homogenates employing the Sircol S2000 assay (Biocolor, Carrickfergus, United Kingdom), in accordance with manufacturer’s protocols. Briefly, 30 mg liver biopsies were fragmented in the appropriate reagent and the supernatant was bound to a dye reagent containing Sirius Red, which would generate a colorimetric reaction quantified as absorbance using an internal collagen standard curve. IL6 and TNFα were quantified in liver homogenates using ELISA assay kits (both from Cloud-Clone Corp, Katy, TX). Briefly, 50 mg liver biopsies were homogenized in proprietary lysis buffer and the supernatants were analyzed by sandwich immunoassays, following the producer’s instructions.
# mouse galectin-3 = molecular target: mouse galectin-3; design: method as in Zetterberg et al., 2022; conditions: ref Zetterberg et al., 2022; read-out: binding affinity for mouse galectin-3; cited from earlier work
smiles,measurement,setting,value
OC[C@H]1O[C@H](Sc2cncc(Br)c2)[C@H](O)[C@@H](n2cc(-c3cc(F)c(F)c(F)c3)nn2)[C@H]1O [selvigaltin],tolerability,"[1]; 30 mg/kg/day p.o., 5 days",well tolerated
same,ALT,[1]; HFD rabbits,97.33 ± 54.99 U/L
same,AST,[1]; HFD rabbits,231.67 ± 22.30 U/L
same,Glycaemia,[1]; HFD rabbits,1.60 ± 0.14 gr/L
same,Liver Weight,[1]; HFD rabbits,3.94 ± 0.55 % of BW
same,MAP,[1]; HFD rabbits,130.83 ± 20.36 mmHg
same,OGTT (iAUC),[1]; HFD rabbits,220.33 ± 8.63
same,Plasma Cholesterol,[1]; HFD rabbits,2064.00 ± 268.00 mg/dL
same,Plasma Triglycerides,[1]; HFD rabbits,88.00 ± 42.14 mg/dL
same,ALT,[1]; RD rabbits,36.33 ± 25.11 U/L
same,AST,[1]; RD rabbits,29.33 ± 5.86 U/L
same,Glycaemia,[1]; RD rabbits,1.12 ± 0.17 gr/L
same,Liver Weight,[1]; RD rabbits,2.40 ± 0.33 % of BW
same,MAP,[1]; RD rabbits,88.75 ± 14.09 mmHg
same,OGTT (iAUC),[1]; RD rabbits,165.90 ± 11.12
same,Plasma Cholesterol,[1]; RD rabbits,21.67 ± 3.51 mg/dL
same,Plasma Triglycerides,[1]; RD rabbits,56.00 ± 21.28 mg/dL
same,Collagen protein in liver homogenate,[2]; 0.3 mg/kg p.o.,57.63 ± 2.73 µg/mg Liver
same,IL6 protein in liver homogenate,[2]; 0.3 mg/kg p.o.,76.12 ± 8.47 pg/g Liver
same,TNFα protein in liver homogenate,[2]; 0.3 mg/kg p.o.,1.61 ± 0.54 pg/mg Liver
same,Collagen protein in liver homogenate,[2]; 1.0 mg/kg p.o.,45.25 ± 3.42 µg/mg Liver
same,IL6 protein in liver homogenate,[2]; 1.0 mg/kg p.o.,63.53 ± 20.39 pg/g Liver
same,TNFα protein in liver homogenate,[2]; 1.0 mg/kg p.o.,1.24 ± 0.58 pg/mg Liver
same,Collagen protein in liver homogenate,[2]; 5.0 mg/kg p.o.,50.86 ± 5.22 µg/mg Liver
same,IL6 protein in liver homogenate,[2]; 5.0 mg/kg p.o.,64.27 ± 18.36 pg/g Liver
same,TNFα protein in liver homogenate,[2]; 5.0 mg/kg p.o.,1.33 ± 0.68 pg/mg Liver
same,Kd,mouse galectin-3,0.77 µM
